Experimental data reported in patent publication US20230085307A1, “PYRIDAZINONE COMPOUND AND HERBICIDE” (NISSAN CHEMICAL CORPORATION, priority 2019, published 2023).

Legend:
green foxtail [1] = test: Test Example 4: herbicidal effect by soil treatment (Table 19, symbol G); assay type: in vivo, green foxtail (Setaria viridis); conditions: amount of applied herbicide 320 g/ha
Excerpt: (§1) [Test Example 4] Herbicidal Effect Test by Soil Treatment
(§2) Sterilized diluvial soil was placed in a plastic box having a length of 21 cm, a width of 13 cm, and a depth of 7 cm. The seeds of each of southern crabgrass, green foxtail, barnyard grass, wild oat, blackgrass, Italian ryegrass, windgrass, velvetleaf, redroot pigweed, lambsquarters, chickweed, false cleavers, persian speedwell, corn, soybean, rice, wheat, beet, and rapeseed were sowed in a spot-like manner and covered with the soil having a thickness of about 1.5 cm. Subsequently, the emulsion agent of the compound of the present invention prepared according to Formulation Example 2 was diluted with water so as to achieve a predetermined herbicide amount, and the diluted emulsion agent was uniformly applied to the surface of the soil with a small-sized spray. The plastic box was placed in a greenhouse at 25° C. to 30° C. for growth of the plants. Three weeks after the herbicide application, the effect of the herbicide on each plant was evaluated according to the criteria of Test Example 1.

southern crabgrass [2] = test: Test Example 4: herbicidal effect by soil treatment (Table 19, symbol F); assay type: in vivo, southern crabgrass (Digitaria ciliaris); conditions: amount of applied herbicide 320 g/ha
Excerpt: as §1, §2

lambsquarters [3] = test: Test Example 5: herbicidal effect by foliage application, plastic box (Table 20, symbol O); assay type: in vivo, lambsquarters (Chenopodium album); conditions: for O: lambsquarters, herbicidal effect grade / herbicidal effect on lambsquarters (O): foliage application, 320 g/ha, three weeks after application
Method in brief: (§3)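 Sow seeds spot-wise in sterilized diluvial soil; cover with ~1.5 cm soil. Grow 14 days in greenhouse, 25° C. to 30° C. Spray foliage with emulsion diluted to predetermined amount. Rate effect after 3 weeks.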

Chinese sprangletop = test: Test Example 3: herbicidal effect by foliage application, Wagner pot (Table 18, symbol D); assay type: in vivo, chinese sprangletop (Leptochloa chinensis); conditions: for herbicidal effect on D: Chinese sprangletop: amount of applied herbicide 320 g/ha; for herbicidal effect on Chinese sprangletop (D): 320 g/ha
Method in brief: (§4)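 Plants were sown in alluvial soil held under 0.1–0.5 cm standing water and grown 14 days in a greenhouse at 25–30 °C. An emulsifiable formulation, water-diluted to the set dose, was then sprayed onto the foliage, and effects were scored three weeks later using previously defined criteria.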

redroot pigweed [4] = test: Test Example 4: herbicidal effect by soil treatment (Table 19, symbol N); assay type: in vivo, redroot pigweed (Amaranthus retroflexus); conditions: amount of applied herbicide 320 g/ha
Excerpt: as §1, §2

lambsquarters [5] = test: Test Example 4: herbicidal effect by soil treatment (Table 19, symbol O); assay type: in vivo, lambsquarters (Chenopodium album); conditions: amount of applied herbicide 320 g/ha
Excerpt: as §1, §2

barnyard grass [6] = test: Test Example 5: herbicidal effect by foliage application, plastic box (Table 20, symbol H); assay type: in vivo, barnyard grass (Echinochloa crus-galli); conditions: for H: barnyard grass, herbicidal effect grade / herbicidal effect on barnyard grass (H): foliage application, 320 g/ha, three weeks after application
Method in brief: as §3

velvetleaf [7] = test: Test Example 4: herbicidal effect by soil treatment (Table 19, symbol M); assay type: in vivo, velvetleaf (Abutilon theophrasti); conditions: amount of applied herbicide 320 g/ha
Excerpt: as §1, §2

barnyard grass [8] = test: Test Example 4: herbicidal effect by soil treatment (Table 19, symbol H); assay type: in vivo, barnyard grass (Echinochloa crus-galli); conditions: amount of applied herbicide 320 g/ha
Excerpt: as §1, §2

barnyard grass [9] = test: Test Example 3: herbicidal effect by foliage application, Wagner pot (Table 18, symbol H); assay type: in vivo, barnyard grass (Echinochloa crus-galli); conditions: for herbicidal effect on H: barnyard grass: amount of applied herbicide 320 g/ha; for herbicidal effect on barnyard grass (H): 320 g/ha
Method in brief: as §4

rice flat sedge = test: Test Example 3: herbicidal effect by foliage application, Wagner pot (Table 18, symbol E); assay type: in vivo, rice flat sedge (Cyperus iria); conditions: for herbicidal effect on E: rice flat sedge: amount of applied herbicide 320 g/ha; for herbicidal effect on rice flat sedge (E): 320 g/ha
Method in brief: as §4

velvetleaf [10] = test: Test Example 5: herbicidal effect by foliage application, plastic box (Table 20, symbol M); assay type: in vivo, velvetleaf (Abutilon theophrasti); conditions: for M: velvetleaf, herbicidal effect grade / herbicidal effect on velvetleaf (M): foliage application, 320 g/ha, three weeks after application
Method in brief: as §3

redroot pigweed [11] = test: Test Example 5: herbicidal effect by foliage application, plastic box (Table 20, symbol N); assay type: in vivo, redroot pigweed (Amaranthus retroflexus); conditions: for N: redroot pigweed, herbicidal effect grade: foliage application, 320 g/ha, three weeks after application
Excerpt: [Test Example 5] Herbicidal Effect Test by Foliage Application
as §2, with “Thereafter, the plants were grown in a greenhouse at 25° C. to 30° C. After 14-day growth of the plants,” for “Subsequently,”, “a foliage part” for “the surface of the soil”, “spray.” for “spray. The plastic box was placed in a greenhouse at 25° C. to 30° C. for growth of the plants.”

southern crabgrass [12] = test: Test Example 5: herbicidal effect by foliage application, plastic box (Table 20, symbol F); assay type: in vivo, southern crabgrass (Digitaria ciliaris); conditions: for F: southern crabgrass, herbicidal effect grade / herbicidal effect on southern crabgrass (F): foliage application, 320 g/ha, three weeks after application
Method in brief: as §3

green foxtail [13] = test: Test Example 5: herbicidal effect by foliage application, plastic box (Table 20, symbol G); assay type: in vivo, green foxtail (Setaria viridis); conditions: for G: green foxtail, herbicidal effect grade / herbicidal effect on green foxtail (G): foliage application, 320 g/ha, three weeks after application
Method in brief: as §3

Italian ryegrass = test: Test Example 5: herbicidal effect by foliage application, plastic box (Table 20, symbol K); assay type: in vivo, Italian ryegrass (Lolium multiflorum); conditions: for herbicidal effect on Italian ryegrass (K): foliage application, 320 g/ha, three weeks after application
Method in brief: as §3

blackgrass = test: Test Example 5: herbicidal effect by foliage application, plastic box (Table 20, symbol J); assay type: in vivo, blackgrass (Alopecurus myosuroides); conditions: for herbicidal effect on blackgrass (J): foliage application, 320 g/ha, three weeks after application
Method in brief: as §3

persian speedwell = test: Test Example 5: herbicidal effect by foliage application, plastic box (Table 20, symbol R); assay type: in vivo, Persian speedwell (Veronica persica); conditions: for herbicidal effect on persian speedwell (R): foliage application, 320 g/ha, three weeks after application
Method in brief: as §3

windgrass = test: Test Example 5: herbicidal effect by foliage application, plastic box (Table 20, symbol L); assay type: in vivo, windgrass (Apera spica-venti); conditions: for herbicidal effect on windgrass (L): foliage application, 320 g/ha, three weeks after application
Method in brief: as §3

wild oat = test: Test Example 5: herbicidal effect by foliage application, plastic box (Table 20, symbol I); assay type: in vivo, wild oat (Avena fatua); conditions: for herbicidal effect on wild oat (I): foliage application, 320 g/ha, three weeks after application
Method in brief: as §3

[14] = amount of applied herbicide 320 g/ha, foliage application after 14-day growth, evaluated three weeks after application

Row | Compound | herbicidal effect, G: green foxtail (green foxtail [1]) | herbicidal effect, F: southern crabgrass (southern crabgrass [2]) | O: lambsquarters, herbicidal effect grade (lambsquarters [3]) | herbicidal effect on D: Chinese sprangletop (Chinese sprangletop) | herbicidal effect, N: redroot pigweed (redroot pigweed [4]) | herbicidal effect, O: lambsquarters (lambsquarters [5]) | H: barnyard grass, herbicidal effect grade (barnyard grass [6]) | herbicidal effect, M: velvetleaf (velvetleaf [7]) | herbicidal effect, H: barnyard grass (barnyard grass [8]) | herbicidal effect on H: barnyard grass (barnyard grass [9]) | herbicidal effect on E: rice flat sedge (rice flat sedge) | M: velvetleaf, herbicidal effect grade (velvetleaf [10]) | N: redroot pigweed, herbicidal effect grade (redroot pigweed [11]) | F: southern crabgrass, herbicidal effect grade (southern crabgrass [12]) | G: green foxtail, herbicidal effect grade (green foxtail [13]) | herbicidal effect on Chinese sprangletop (D) (Chinese sprangletop) | herbicidal effect on barnyard grass (H) (barnyard grass [9]) | herbicidal effect on rice flat sedge (E) (rice flat sedge) | herbicidal effect on Italian ryegrass (K) (Italian ryegrass) | herbicidal effect on blackgrass (J) (blackgrass) | other results
1 | Cc1nn(C)c(=O)c(-c2c(-c3ccc(OC(F)(F)F)cc3)sc3ccc(Cl)cc23)c1O [2-457] | 0 (Herbicidal rate of 5% or less (almost no effect)) | 0 (Herbicidal rate of 5% or less (almost no effect)) | 5 (Herbicidal rate of 90% or more (almost completely withered)) | 3 (Herbicidal rate of 40% or more and less than 70%) | 3 (Herbicidal rate of 40% or more and less than 70%) | 2 (Herbicidal rate of 20% or more and less than 40%) | 5 (Herbicidal rate of 90% or more (almost completely withered)) | 1 (Herbicidal rate of 5% or more and less than 20%) | 0 (Herbicidal rate of 5% or less (almost no effect)) | 5 (Herbicidal rate of 90% or more (almost completely withered)) | 5 (Herbicidal rate of 90% or more (almost completely withered)) | 3 (Herbicidal rate of 40% or more and less than 70%) | 4 (Herbicidal rate of 70% or more and less than 90%) | 3 (Herbicidal rate of 40% or more and less than 70%) | 3 (Herbicidal rate of 40% or more and less than 70%) | – | – | – | – | – | –
2 | CC(CSc1ccc(-c2sc3ccc(F)cc3c2-c2c(O)c(C)nn(C)c2=O)cc1)=NO [2-452] | 0 (Herbicidal rate of 5% or less (almost no effect)) | 0 (Herbicidal rate of 5% or less (almost no effect)) | 5 (Herbicidal rate of 90% or more (almost completely withered)) | 0 (Herbicidal rate of 5% or less (almost no effect)) | 5 (Herbicidal rate of 90% or more (almost completely withered)) | 4 (Herbicidal rate of 70% or more and less than 90%) | 5 (Herbicidal rate of 90% or more (almost completely withered)) | 0 (Herbicidal rate of 5% or less (almost no effect)) | 0 (Herbicidal rate of 5% or less (almost no effect)) | 5 (Herbicidal rate of 90% or more (almost completely withered)) | 5 (Herbicidal rate of 90% or more (almost completely withered)) | 5 (Herbicidal rate of 90% or more (almost completely withered)) | 5 (Herbicidal rate of 90% or more (almost completely withered)) | 3 (Herbicidal rate of 40% or more and less than 70%) | 5 (Herbicidal rate of 90% or more (almost completely withered)) | – | – | – | – | – | –
3 | COCc1ccccc1-c1sc2c(Cl)cccc2c1-c1c(O)c(C)nn(C)c1=O [4-081] | – | – | – | – | – | – | – | – | – | – | – | – | – | – | – | 0 (Herbicidal rate of 5% or less (almost no effect)) | 3 (Herbicidal rate of 40% or more and less than 70%) | 0 (Herbicidal rate of 5% or less (almost no effect)) | – | – | Herbicidal effect by foliage application, K: Italian ryegrass (Italian ryegrass; [14]): 0 (Herbicidal rate of 5% or less (almost no effect)); Herbicidal effect by foliage application, J: blackgrass (blackgrass; [14]): 0 (Herbicidal rate of 5% or less (almost no effect)); Herbicidal effect by foliage application, O: lambsquarters (lambsquarters [3]; [14]): 1 (Herbicidal rate of 5% or more and less than 20%); Herbicidal effect by foliage application, R: persian speedwell (persian speedwell; [14]): 1 (Herbicidal rate of 5% or more and less than 20%); Herbicidal effect by foliage application, H: barnyard grass (barnyard grass [6]; [14]): 3 (Herbicidal rate of 40% or more and less than 70%); Herbicidal effect by foliage application, L: windgrass (windgrass; [14]): 0 (Herbicidal rate of 5% or less (almost no effect)); Herbicidal effect by foliage application, I: wild oat (wild oat; [14]): 0 (Herbicidal rate of 5% or less (almost no effect)); Herbicidal effect by foliage application, M: velvetleaf (velvetleaf [10]; [14]): 3 (Herbicidal rate of 40% or more and less than 70%); Herbicidal effect by foliage application, N: redroot pigweed (redroot pigweed [11]; [14]): 1 (Herbicidal rate of 5% or more and less than 20%); Herbicidal effect by foliage application, F: southern crabgrass (southern crabgrass [12]; [14]): 0 (Herbicidal rate of 5% or less (almost no effect)); Herbicidal effect by foliage application, G: green foxtail (green foxtail [13]; [14]): 3 (Herbicidal rate of 40% or more and less than 70%)
4 | CCCC(=O)Oc1c(C)nn(C)c(=O)c1-c1c(-c2ccc(F)cc2)sc2cc(OC)c(OC)cc12 [5-058] | – | – | – | – | – | – | – | – | – | – | – | – | – | – | – | 0 (Herbicidal rate of 5% or less (almost no effect)) | 0 (Herbicidal rate of 5% or less (almost no effect)) | 3 (Herbicidal rate of 40% or more and less than 70%) | 1 (Herbicidal rate of 5% or more and less than 20%) | 0 (Herbicidal rate of 5% or less (almost no effect)) | herbicidal effect on lambsquarters (O) (lambsquarters [3]): 0 (Herbicidal rate of 5% or less (almost no effect)); herbicidal effect on persian speedwell (R) (persian speedwell): 0 (Herbicidal rate of 5% or less (almost no effect)); herbicidal effect on barnyard grass (H) (barnyard grass [6]): 0 (Herbicidal rate of 5% or less (almost no effect)); herbicidal effect on windgrass (L) (windgrass): 0 (Herbicidal rate of 5% or less (almost no effect)); herbicidal effect on wild oat (I) (wild oat): 0 (Herbicidal rate of 5% or less (almost no effect)); herbicidal effect on velvetleaf (M) (velvetleaf [10]): 0 (Herbicidal rate of 5% or less (almost no effect)); herbicidal effect on southern crabgrass (F) (southern crabgrass [12]): 0 (Herbicidal rate of 5% or less (almost no effect)); herbicidal effect on green foxtail (G) (green foxtail [13]): 0 (Herbicidal rate of 5% or less (almost no effect))
5 | COc1ccc(-c2sc3cc(C)c(C)cc3c2-c2c(O)c(C)nn(C)c2=O)cc1 [5-092] | – | – | – | – | – | – | – | – | – | – | – | – | – | – | – | 0 (Herbicidal rate of 5% or less (almost no effect)) | 2 (Herbicidal rate of 20% or more and less than 40%) | 0 (Herbicidal rate of 5% or less (almost no effect)) | 0 (Herbicidal rate of 5% or less (almost no effect)) | 0 (Herbicidal rate of 5% or less (almost no effect)) | herbicidal effect on lambsquarters (O) (lambsquarters [3]): 0 (Herbicidal rate of 5% or less (almost no effect)); herbicidal effect on persian speedwell (R) (persian speedwell): 4 (Herbicidal rate of 70% or more and less than 90%); herbicidal effect on barnyard grass (H) (barnyard grass [6]): 0 (Herbicidal rate of 5% or less (almost no effect)); herbicidal effect on windgrass (L) (windgrass): 0 (Herbicidal rate of 5% or less (almost no effect)); herbicidal effect on wild oat (I) (wild oat): 0 (Herbicidal rate of 5% or less (almost no effect)); herbicidal effect on velvetleaf (M) (velvetleaf [10]): 0 (Herbicidal rate of 5% or less (almost no effect)); herbicidal effect on southern crabgrass (F) (southern crabgrass [12]): 0 (Herbicidal rate of 5% or less (almost no effect)); herbicidal effect on green foxtail (G) (green foxtail [13]): 0 (Herbicidal rate of 5% or less (almost no effect))
